The supplement of paper PMC10307832

Experiments:
Test in all cases: relative viability (nuclei count vs DMSO), 5 days (fraction); higher = more cells survive
[1] = test system: NCI-H460
Outline: (§1)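 Dosing by pin tool came one day after lung cancer cell lines were seeded in 1536-well plates, using either one drug or a fixed anchor-drug dose plus five library-drug doses (not always all listed) in √10 steps. After 5 days, nuclei were counted on 4× images. Relative viability is treated-well nuclei count divided by vehicle-well nuclei count, and values are medians of duplicate plates.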

[2] = test system: NCI-H1944
Outline: as §1

[3] = test system: NCI-H1651
Outline: as §1

[4] = test system: NCI-H520
Outline: as §1

[5] = test system: BEN
Outline: as §1

[6] = test system: NCI-H596
Outline: as §1

[7] = test system: NCI-H838
Outline: as §1

[8] = test system: NCI-H2085
Outline: as §1

[9] = test system: NCI-H661
Outline: as §1

[10] = test system: LOU-NH91
Outline: as §1

[11] = test system: NCI-H2126
Outline: as §1

[12] = test system: LCLC-103H
Outline: as §1

[13] = test system: HARA
Outline: as §1

[14] = test system: NCI-H1975
Outline: as §1

[15] = test system: NCI-H647
Outline: as §1

[16] = test system: SW 900
Outline: as §1

[17] = test system: A-427
Outline: as §1

[18] = test system: NCI-H1734
Outline: as §1

[19] = test system: NCI-H727
Outline: as §1

[20] = test system: CAL-12T
Outline: as §1

[21] = test system: RERF-LC-KJ
Outline: as §1

[22] = test system: NCI-H1666
Outline: as §1

[23] = test system: ABC-1
Outline: as §1

CN1CCN(CCOc2cc(OC3CCOCC3)c3c(Nc4c(Cl)ccc5c4OCO5)ncnc3c2)CC1 [Saracatinib] + O=C(CCCCCCC(=O)Nc1ccccc1)NO [Vorinostat] (partner 1 µM)
relative viability ([1]; first compound 0.02 µM): 0.735
relative viability ([1]; first compound 0.2 µM): 0.591
relative viability ([1]; first compound 0.6325 µM): 0.677
relative viability ([1]; first compound 2 µM): 0.604
relative viability ([2]; first compound 0.02 µM): 0.54
relative viability ([2]; first compound 0.2 µM): 0.542
relative viability ([2]; first compound 0.6325 µM): 0.509
relative viability ([2]; first compound 2 µM): 0.358
relative viability ([3]; first compound 0.02 µM): 0.598
relative viability ([3]; first compound 0.2 µM): 0.547
relative viability ([3]; first compound 0.6325 µM): 0.598
relative viability ([3]; first compound 2 µM): 0.554
relative viability ([4]; first compound 0.02 µM): 0.652
relative viability ([4]; first compound 0.2 µM): 0.471
relative viability ([4]; first compound 0.6325 µM): 0.598
relative viability ([4]; first compound 2 µM): 0.477
relative viability ([5]; first compound 0.02 µM): 0.54
relative viability ([5]; first compound 0.2 µM): 0.57
relative viability ([5]; first compound 0.6325 µM): 0.54
relative viability ([5]; first compound 2 µM): 0.576
relative viability ([6]; first compound 0.02 µM): 0.568
relative viability ([6]; first compound 0.2 µM): 0.511
relative viability ([6]; first compound 0.6325 µM): 0.585
relative viability ([6]; first compound 2 µM): 0.406
relative viability ([7]; first compound 0.02 µM): 0.685
relative viability ([7]; first compound 0.2 µM): 0.681
relative viability ([7]; first compound 0.6325 µM): 0.721
relative viability ([7]; first compound 2 µM): 0.765
relative viability ([8]; first compound 0.02 µM): 0.816
relative viability ([8]; first compound 0.2 µM): 0.694
relative viability ([8]; first compound 0.6325 µM): 0.896
relative viability ([8]; first compound 2 µM): 0.815
relative viability ([9]; first compound 0.02 µM): 0.798
relative viability ([9]; first compound 0.2 µM): 0.808
relative viability ([9]; first compound 0.6325 µM): 0.81
relative viability ([9]; first compound 2 µM): 0.693
relative viability ([10]; first compound 0.02 µM): 0.87
relative viability ([10]; first compound 0.2 µM): 0.696
relative viability ([10]; first compound 0.6325 µM): 0.903
relative viability ([10]; first compound 2 µM): 0.628
relative viability ([11]; first compound 0.02 µM): 0.936
relative viability ([11]; first compound 0.2 µM): 0.647
relative viability ([11]; first compound 0.6325 µM): 0.713
relative viability ([11]; first compound 2 µM): 0.539
relative viability ([12]; first compound 0.02 µM): 0.868
relative viability ([12]; first compound 0.2 µM): 0.733
relative viability ([12]; first compound 0.6325 µM): 0.846
relative viability ([12]; first compound 2 µM): 0.762
relative viability ([13]; first compound 0.02 µM): 0.505
relative viability ([13]; first compound 0.2 µM): 0.654
relative viability ([13]; first compound 0.6325 µM): 0.62
relative viability ([13]; first compound 2 µM): 0.572
relative viability ([14]; first compound 0.02 µM): 0.72
relative viability ([14]; first compound 0.2 µM): 0.716
relative viability ([14]; first compound 0.6325 µM): 0.725
relative viability ([14]; first compound 2 µM): 0.563
relative viability ([15]; first compound 0.02 µM): 0.612
relative viability ([15]; first compound 0.2 µM): 0.499
relative viability ([15]; first compound 0.6325 µM): 0.532
relative viability ([15]; first compound 2 µM): 0.45
relative viability ([16]; first compound 0.02 µM): 0.683
relative viability ([16]; first compound 0.2 µM): 0.407
relative viability ([16]; first compound 0.6325 µM): 0.676
relative viability ([16]; first compound 2 µM): 0.367
relative viability ([17]; first compound 0.02 µM): 0.899
relative viability ([17]; first compound 0.2 µM): 0.852
relative viability ([17]; first compound 0.6325 µM): 0.795
relative viability ([17]; first compound 2 µM): 0.863
relative viability ([18]; first compound 0.02 µM): 0.793
relative viability ([18]; first compound 0.6325 µM): 0.837
relative viability ([18]; first compound 2 µM): 0.652
relative viability ([19]; first compound 0.02 µM): 1.12
relative viability ([19]; first compound 0.2 µM): 0.996
relative viability ([19]; first compound 0.6325 µM): 1.23
relative viability ([19]; first compound 2 µM): 0.888
relative viability ([20]; first compound 0.02 µM): 0.804
relative viability ([20]; first compound 0.2 µM): 0.764
relative viability ([20]; first compound 0.6325 µM): 0.91
relative viability ([20]; first compound 2 µM): 0.696
relative viability ([21]; first compound 0.02 µM): 0.87
relative viability ([21]; first compound 0.2 µM): 0.729
relative viability ([21]; first compound 0.6325 µM): 0.753
relative viability ([21]; first compound 2 µM): 0.589
relative viability ([22]; first compound 0.02 µM): 0.988
relative viability ([22]; first compound 0.2 µM): 0.914
relative viability ([22]; first compound 0.6325 µM): 1.12
relative viability ([22]; first compound 2 µM): 1.2
relative viability ([23]; first compound 0.02 µM): 0.905
relative viability ([23]; first compound 0.2 µM): 0.99
relative viability ([23]; first compound 0.6325 µM): 1.37
relative viability ([23]; first compound 2 µM): 0.857
